US5773646A, “Meta-substituted phenylene derivatives” (G. D. Searle & Co., priority 1997, dated 1998)
Counter-ions that a name gives are not always drawn.

What was measured:
[1] = target: T1, Human vitronectin receptor (αv β3) (Homo sapiens, UniProt P05106+P06756); assay: Vitronectin adhesion assay (solid phase receptor assay, biotinylated vitronectin competition); assay type: binding; conditions: inhibition of 50% of the maximum binding of biotinylated vitronectin; 1 nM labeled ligand, 2 hours, room temperature, highest concentration of test compound 1.0×10^-4 M; read-out: AvB3 IC50
T1 construct: Human vitronectin receptor(αv β3) was purified from human placenta; from tissue; host or cells: human placenta
How it was run: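 Placenta-purified αvβ3 coated at 1.0 μg/mL in TBS (1 mM Ca, Mg, Mn, pH 7.4), overnight 4 °C. Compound competed 2 h at RT with 1 nM biotinylated vitronectin (final; top compound 1.0×10^-4 M); bound ligand detected by HRP anti-biotin/OPD at 450 nm, normalized to no-competitor controls, four-parameter fit.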

[2] = target: T2, Human fibrinogen receptor (αIIb β3) (Homo sapiens, UniProt P05106+P08514); assay: Purified IIb/IIIa receptor assay (solid phase receptor assay, biotinylated vitronectin competition); conditions: inhibition of 50% of the maximum binding of biotinylated vitronectin; 1 nM labeled ligand, 2 hours, room temperature, highest concentration of test compound 1.0×10^-4 M
T2 construct: Human fibrinogen receptor (αIIb β3) was purified from outdated platelets; from tissue; host or cells: outdated human platelets
How it was run: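 Platelet-purified αIIbβ3 was coated at 100 ng/well in TBS with 1 mM Ca²⁺/Mg²⁺/Mn²⁺, pH 7.4, then BSA-blocked. Compound (up to 1.0×10⁻⁴ M final) competed with 1 nM biotinylated vitronectin for 2 h at room temperature. Bound ligand was detected with HRP anti-biotin at A450, normalized to maximum binding, and curve-fitted.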

## CC(CC(=O)O)c1cccc(CNC(=O)c2cccc(NC3=NC(=O)CN3)c2)c1 (racemic) [Example 67, (±) 3-[[[[3-[(4,5-dihydro-4-oxo-1H-imidazol-2-yl)amino]phenyl]carbonyl]amino]methyl]-β-methylbenzenepropanoic acid]
[1]
  IC50: 0.122 µM
[2]
  IC50: 12.9 µM

## CCC(CC(=O)O)c1cccc(NS(=O)(=O)c2cccc(NC(N)=NC(N)=O)c2)c1 (stereo not drawn) [Example 95, 3-[[[3-[[amino[(aminocarbonyl)imino]methyl]amino]phenyl]sulfonyl]amino]-β-ethylbenzenepropanoic Acid, Trifluoroacetate Salt]
[1]
  IC50: 0.0357 µM
[2]
  IC50: 8.45 µM

## CC(CC(=O)OC(C)(C)C)c1cccc(CNC(=O)c2cccc(NC(=N)N)c2)c1 (stereo not drawn) [Example 39, 1,1-dimethylethyl 3-[[[[3-[(aminoiminomethyl)amino]phenyl]carbonyl]amino]methyl]-β-methyl)benzenepropanoate, trifluoroacetate salt]
[1]
  IC50: 8.56 µM
[2]
  IC50: 62.4 µM

## CC(CC(=O)O)c1cccc(CNC(=O)c2cccc(NC(N)=NC(N)=O)c2)c1 (racemic) [Example 65, (±) 3[[[[3-[[amino[(aminocarbonyl)imino]methyl]amino]phenyl]carbonyl]amino]methyl]-β-methylbenzenepropanoic acid, trifluoroacetate salt]
[1]
  IC50: 0.023 µM
[2]
  IC50: 4.01 µM
